Converted amounts (≈) assume the structure as drawn.

Our source for the MIC and solubility values is ChEMBL document CHEMBL2311426, “Synthesis and antibacterial activity of novel water-soluble nocathiacin analogs” (Bioorg Med Chem Lett, 2013).

The subject of one series is Enterococcus faecalis. Briefly: Antibacterial activity against Enterococcus faecalis C21560 by turbidity method. It counts as functional. Conditions: read-out: MIC100.
A further series relates to Streptococcus pneumoniae. Briefly: Antibacterial activity against Streptococcus pneumoniae CL2883 by turbidity method. It counts as functional. The note with it: read-out: MIC100.
The test system of another series is Staphylococcus aureus. Briefly: Antibacterial activity against Staphylococcus aureus MB2865 by turbidity method. Type of series: functional. The note with it: read-out: MIC100.
Series [1] is described as follows: Aqueous solubility of the compound in water containing 5% dextrose at pH 4. It counts as physicochemical.

`CO/C(C)=C1/NC(=O)[C@H]([C@@H](C)O)NC(=O)c2csc(n2)-c2cc(O)c(-c3nc(CNCC(C)(C)N4CCOCC4)cs3)nc2-c2csc(n2)[C@@H]2COC(=O)c3c4c5c(cccc5n3O)COC(=O)[C@@H](O[C@H]3C[C@](C)(O)[C@H](N(C)C)[C@H](C)O3)[C@@H](OC4)[C@H](NC(=O)c3csc1n3)c1nc(cs1)C(=O)N2`: the MIC with Enterococcus faecalis worked out at 0.03 µg/mL (≈ 0.0201 µM); with Streptococcus pneumoniae, 0.00046 µg/mL (≈ 0.000308 µM); in the series on Staphylococcus aureus, 0.06 µg/mL (≈ 0.0401 µM).

As a reminder, the solubility is the dissolved amount per volume that the medium holds. A high value points to a readily soluble substance. As to `CO/C(C)=C1/NC(=O)[C@H]([C@@H](C)O)NC(=O)c2csc(n2)-c2cc(O)c(-c3nc(CNC(=O)CN4CCN(C)CC4)cs3)nc2-c2csc(n2)[C@@H]2COC(=O)c3c4c5c(cccc5n3O)COC(=O)[C@@H](O[C@H]3C[C@](C)(O)[C@H](N(C)C)[C@H](C)O3)[C@@H](OC4)[C@H](NC(=O)c3csc1n3)c1nc(cs1)C(=O)N2.O=C(O)C(F)(F)F`, the solubility in series [1] is above 10000 µg/mL.

Consider `CO/C(C)=C1/NC(=O)[C@H]([C@@H](C)O)NC(=O)c2csc(n2)-c2cc(O)c(-c3nc(CNC(=O)NCCN(C)C)cs3)nc2-c2csc(n2)[C@@H]2COC(=O)c3c4c5c(cccc5n3O)COC(=O)[C@@H](O[C@H]3C[C@](C)(O)[C@H](N(C)C)[C@H](C)O3)[C@@H](OC4)[C@H](NC(=O)c3csc1n3)c1nc(cs1)C(=O)N2`, for which the MIC with Enterococcus faecalis was found to be 0.5 µg/mL (≈ 0.34 µM); in the series on Staphylococcus aureus, 0.125 µg/mL (≈ 0.0851 µM).

Turning to `C=C(NC(=O)c1csc(-c2nc3c(cc2O)-c2nc(cs2)C(=O)N[C@@H]([C@@H](C)O)C(=O)N/C(=C(\C)OC)c2nc(cs2)C(=O)N[C@@H]2c4nc(cs4)C(=O)N[C@@H](COC(=O)c4c5c6c(cccc6n4O)COC(=O)[C@@H](O[C@H]4C[C@](C)(O)[C@H](N(C)C)[C@H](C)O4)[C@H]2OC5)c2nc-3cs2)n1)C(N)=O` [MJ347-81F4 A], the MIC amounted to 0.03 µg/mL (≈ 0.0209 µM) with Enterococcus faecalis, 0.002 µg/mL (≈ 0.00139 µM) with Streptococcus pneumoniae and 0.007 µg/mL (≈ 0.00487 µM) in the series with Staphylococcus aureus.

Regarding `CO/C(C)=C1/NC(=O)[C@H]([C@@H](C)O)NC(=O)c2csc(n2)-c2cc(O)c(-c3nc(CNC(=O)C(NC(N)=O)c4ccc(O)cc4)cs3)nc2-c2csc(n2)[C@@H]2COC(=O)c3c4c5c(cccc5n3O)COC(=O)[C@@H](O[C@H]3C[C@](C)(O)[C@H](N(C)C)[C@H](C)O3)[C@@H](OC4)[C@H](NC(=O)c3csc1n3)c1nc(cs1)C(=O)N2` (some centres undefined), the MIC with Enterococcus faecalis and with Staphylococcus aureus was above 1 µg/mL each time.

In series [1], `CO/C(C)=C1/NC(=O)[C@H]([C@@H](C)O)NC(=O)c2csc(n2)-c2cc(O)c(-c3nc(CNCC(C)(C)N4CCCCC4)cs3)nc2-c2csc(n2)[C@@H]2COC(=O)c3c4c5c(cccc5n3O)COC(=O)[C@@H](O[C@H]3C[C@](C)(O)[C@H](N(C)C)[C@H](C)O3)[C@@H](OC4)[C@H](NC(=O)c3csc1n3)c1nc(cs1)C(=O)N2.O=C(O)C(F)(F)F` had a solubility above 10000 µg/mL.

For `CO/C(C)=C1/NC(=O)[C@H]([C@@H](C)O)NC(=O)c2csc(n2)-c2cc(O)c(-c3nc(CNCCO)cs3)nc2-c2csc(n2)[C@@H]2COC(=O)c3c4c5c(cccc5n3O)COC(=O)[C@@H](O[C@H]3C[C@](C)(O)[C@H](N(C)C)[C@H](C)O3)[C@@H](OC4)[C@H](NC(=O)c3csc1n3)c1nc(cs1)C(=O)N2.O=C(O)C(F)(F)F`, the solubility in series [1] is above 10000 µg/mL.

For the molecule `CO/C(C)=C1/NC(=O)[C@H]([C@@H](C)O)NC(=O)c2csc(n2)-c2cc(O)c(-c3nc(CNCc4cncnc4)cs3)nc2-c2csc(n2)[C@@H]2COC(=O)c3c4c5c(cccc5n3O)COC(=O)[C@@H](O[C@H]3C[C@](C)(O)[C@H](N(C)C)[C@H](C)O3)[C@@H](OC4)[C@H](NC(=O)c3csc1n3)c1nc(cs1)C(=O)N2.O=C(O)C(F)(F)F`, the solubility in series [1] was above 10000 µg/mL.

Regarding `CO/C(C)=C1/NC(=O)[C@H]([C@@H](C)O)NC(=O)c2csc(n2)-c2cc(O)c(-c3nc(CNC(=O)NCCN(C)C)cs3)nc2-c2csc(n2)[C@@H]2COC(=O)c3c4c5c(cccc5n3O)COC(=O)[C@@H](O[C@H]3C[C@](C)(O)[C@H](N(C)C)[C@H](C)O3)[C@@H](OC4)[C@H](NC(=O)c3csc1n3)c1nc(cs1)C(=O)N2.O=C(O)C(F)(F)F`, the solubility in series [1] is above 10000 µg/mL.

As to `CO/C(C)=C1/NC(=O)[C@H]([C@@H](C)O)NC(=O)c2csc(n2)-c2cc(O)c(-c3nc(CNC(=O)CN(C)C)cs3)nc2-c2csc(n2)[C@@H]2COC(=O)c3c4c5c(cccc5n3O)COC(=O)[C@@H](O[C@H]3C[C@](C)(O)[C@H](N(C)C)[C@H](C)O3)[C@@H](OC4)[C@H](NC(=O)c3csc1n3)c1nc(cs1)C(=O)N2.O=C(O)C(F)(F)F`, the solubility in series [1] is above 10000 µg/mL.

For the molecule `CO/C(C)=C1/NC(=O)[C@H]([C@@H](C)O)NC(=O)c2csc(n2)-c2cc(O)c(-c3nc(CN(CCO)CCO)cs3)nc2-c2csc(n2)[C@@H]2COC(=O)c3c4c5c(cccc5n3O)COC(=O)[C@@H](O[C@H]3C[C@](C)(O)[C@H](N(C)C)[C@H](C)O3)[C@@H](OC4)[C@H](NC(=O)c3csc1n3)c1nc(cs1)C(=O)N2`, the MIC in the series on Enterococcus faecalis was determined as 0.12 µg/mL (≈ 0.0832 µM); in the series with Streptococcus pneumoniae, 0.0075 µg/mL (≈ 0.0052 µM); in the series with Staphylococcus aureus it was 0.06 µg/mL (≈ 0.0416 µM).

Consider `CO/C(C)=C1/NC(=O)[C@H]([C@@H](C)O)NC(=O)c2csc(n2)-c2cc(O)c(-c3nc(CNC(=O)CCN4CCOCC4)cs3)nc2-c2csc(n2)[C@@H]2COC(=O)c3c4c5c(cccc5n3O)COC(=O)[C@@H](O[C@H]3C[C@](C)(O)[C@H](N(C)C)[C@H](C)O3)[C@@H](OC4)[C@H](NC(=O)c3csc1n3)c1nc(cs1)C(=O)N2.O=C(O)C(F)(F)F`, for which, in series [1], the solubility is above 10000 µg/mL.

`CO/C(C)=C1/NC(=O)[C@H]([C@@H](C)O)NC(=O)c2csc(n2)-c2cc(O)c(-c3nc(CN(CCO)CCO)cs3)nc2-c2csc(n2)[C@@H]2COC(=O)c3c4c5c(cccc5n3O)COC(=O)[C@@H](O[C@H]3C[C@](C)(O)[C@H](N(C)C)[C@H](C)O3)[C@@H](OC4)[C@H](NC(=O)c3csc1n3)c1nc(cs1)C(=O)N2.O=C(O)C(F)(F)F`: the solubility in series [1] is above 10000 µg/mL.

For `CO/C(C)=C1/NC(=O)[C@H]([C@@H](C)O)NC(=O)c2csc(n2)-c2cc(O)c(-c3nc(CNCC(O)CO)cs3)nc2-c2csc(n2)[C@@H]2COC(=O)c3c4c5c(cccc5n3O)COC(=O)[C@@H](O[C@H]3C[C@](C)(O)[C@H](N(C)C)[C@H](C)O3)[C@@H](OC4)[C@H](NC(=O)c3csc1n3)c1nc(cs1)C(=O)N2` (some centres undefined), the figures for the MIC with Enterococcus faecalis, in the series on Streptococcus pneumoniae and in the series on Staphylococcus aureus were 0.25 µg/mL (≈ 0.175 µM), 0.0075 µg/mL (≈ 0.00525 µM) and 0.06 µg/mL (≈ 0.042 µM), respectively.

`CO/C(C)=C1/NC(=O)[C@H]([C@@H](C)O)NC(=O)c2csc(n2)-c2cc(O)c(-c3nc(CNCC(O)CO)cs3)nc2-c2csc(n2)[C@@H]2COC(=O)c3c4c5c(cccc5n3O)COC(=O)[C@@H](O[C@H]3C[C@](C)(O)[C@H](N(C)C)[C@H](C)O3)[C@@H](OC4)[C@H](NC(=O)c3csc1n3)c1nc(cs1)C(=O)N2.O=C(O)C(F)(F)F` (some centres undefined) registered a solubility in series [1] above 10000 µg/mL.

As for `CO/C(C)=C1/NC(=O)[C@H]([C@@H](C)O)NC(=O)c2csc(n2)-c2cc(O)c(-c3nc(CNC(=O)NCC(O)CO)cs3)nc2-c2csc(n2)[C@@H]2COC(=O)c3c4c5c(cccc5n3O)COC(=O)[C@@H](O[C@H]3C[C@](C)(O)[C@H](N(C)C)[C@H](C)O3)[C@@H](OC4)[C@H](NC(=O)c3csc1n3)c1nc(cs1)C(=O)N2` (some centres undefined), the figures for the MIC in the series on Enterococcus faecalis, in the series on Streptococcus pneumoniae and in the series with Staphylococcus aureus were 0.5 µg/mL (≈ 0.34 µM), 0.015 µg/mL (≈ 0.0102 µM) and 0.06 µg/mL (≈ 0.0408 µM), respectively.

`CO/C(C)=C1/NC(=O)[C@H]([C@@H](C)O)NC(=O)c2csc(n2)-c2cc(O)c(-c3nc(CNCC[C@H](O)[C@H](O)CO)cs3)nc2-c2csc(n2)[C@@H]2COC(=O)c3c4c5c(cccc5n3O)COC(=O)[C@@H](O[C@H]3C[C@](C)(O)[C@H](N(C)C)[C@H](C)O3)[C@@H](OC4)[C@H](NC(=O)c3csc1n3)c1nc(cs1)C(=O)N2`: the MIC with Enterococcus faecalis stood at 1 µg/mL (≈ 0.679 µM); with Streptococcus pneumoniae it was 0.015 µg/mL (≈ 0.0102 µM); in the series with Staphylococcus aureus, 0.125 µg/mL (≈ 0.0849 µM).

In series [1], `CO/C(C)=C1/NC(=O)[C@H]([C@@H](C)O)NC(=O)c2csc(n2)-c2cc(O)c(-c3nc(CN(C)C)cs3)nc2-c2csc(n2)[C@@H]2COC(=O)c3c4c5c(cccc5n3O)COC(=O)[C@@H](O[C@H]3C[C@](C)(O)[C@H](N(C)C)[C@H](C)O3)[C@@H](OC4)[C@H](NC(=O)c3csc1n3)c1nc(cs1)C(=O)N2.O=C(O)C(F)(F)F` displayed a solubility above 10000 µg/mL.

`CO/C(C)=C1/NC(=O)[C@H]([C@@H](C)O)NC(=O)c2csc(n2)-c2cc(O)c(-c3nc(CNCC[C@H](O)[C@H](O)CO)cs3)nc2-c2csc(n2)[C@@H]2COC(=O)c3c4c5c(cccc5n3O)COC(=O)[C@@H](O[C@H]3C[C@](C)(O)[C@H](N(C)C)[C@H](C)O3)[C@@H](OC4)[C@H](NC(=O)c3csc1n3)c1nc(cs1)C(=O)N2.O=C(O)C(F)(F)F` displayed a solubility in series [1] above 10000 µg/mL.

In turn, `CO/C(C)=C1/NC(=O)[C@H]([C@@H](C)O)NC(=O)c2csc(n2)-c2cc(O)c(-c3nc(CN)cs3)nc2-c2csc(n2)[C@@H]2COC(=O)c3c4c5c(cccc5n3O)COC(=O)[C@@H](O[C@H]3C[C@](C)(O)[C@H](N(C)C)[C@H](C)O3)[C@@H](OC4)[C@H](NC(=O)c3csc1n3)c1nc(cs1)C(=O)N2.O=C(O)C(F)(F)F` yielded a solubility in series [1] above 10000 µg/mL.

Take `CO/C(C)=C1/NC(=O)[C@H]([C@@H](C)O)NC(=O)c2csc(n2)-c2cc(O)c(-c3nc(CNC(=O)C(N)=O)cs3)nc2-c2csc(n2)[C@@H]2COC(=O)c3c4c5c(cccc5n3O)COC(=O)[C@@H](O[C@H]3C[C@](C)(O)[C@H](N(C)C)[C@H](C)O3)[C@@H](OC4)[C@H](NC(=O)c3csc1n3)c1nc(cs1)C(=O)N2`: the results for the MIC with Enterococcus faecalis, in the series with Streptococcus pneumoniae and in the series on Staphylococcus aureus were 0.0075 µg/mL (≈ 0.00526 µM), 0.00457 µg/mL (≈ 0.00321 µM) and 0.0075 µg/mL (≈ 0.00526 µM), respectively.

As to `CO/C(C)=C1/NC(=O)[C@H]([C@@H](C)O)NC(=O)c2csc(n2)-c2cc(O)c(-c3nc(CNC(=O)NCCc4cnc[nH]4)cs3)nc2-c2csc(n2)[C@@H]2COC(=O)c3c4c5c(cccc5n3O)COC(=O)[C@@H](O[C@H]3C[C@](C)(O)[C@H](N(C)C)[C@H](C)O3)[C@@H](OC4)[C@H](NC(=O)c3csc1n3)c1nc(cs1)C(=O)N2`, the values for the MIC in the series with Enterococcus faecalis and in the series with Staphylococcus aureus were 0.5 µg/mL (≈ 0.335 µM) and 0.125 µg/mL (≈ 0.0838 µM), respectively.
